Test results from US20120322812A1, “RUTAECARPINE DERIVATIVES FOR TREATING INSOMNIA” (priority 2011, published 2012).

Tested on: CYP1A2
Test: MEROD assay in live Hepa1c1c7 cells preincubated with test compound (CYP1A2 induction)
Assay type: cell-based, mouse
From the text: FIG. 1 illustrates how caffeine is primarily metabolized to paraxanthine via CYP1A2 enzyme in a human, according to some embodiments. The MEROD (methoxyresorufin-O-demethylase) assay measures the activity of the enzyme (CYP1A2) that converts methoxyresorufin (probe substrate) to resorufin (demethylation) in the presence of NADPH. The resulting resorufin concentration can be measured using a fluorescence reader by setting the excitation and emission wavelengths at 544 and 590 nm, respectively.
For MEROD assay in live cells, Hepa1c1c7 cells were cultured in either 6-well or 24-well-plates. For the 24-well plate experiment, after confluent cells were incubated for approximately 20 hours with either resorufin, nitro-resorufin, chloro-resorufin, 3-MC or DMSO (in triplicates), culture media was removed and 180 μL fresh culture media containing […] methoxyresorufin was added per well. After 1 hour incubation at 37° C., 100 μL aliquot was taken from each well and the formation of resorufin was measured by fluorescence. […] After 5 hours incubation at 37° C., 100 μL aliquot was taken from each well, centrifuged at 12,000 g at RT for ˜5 min and the supernatants were placed into wells of a 96-well fluorescence plate and the formation of resorufin was measured by fluorescence.

Compound: O=c1c2ccc(Cl)cc2nc2n1CCc1c-2[nH]c2ccccc12 [chloro-rutaecarpine]
- formation of resorufin in live cells (MEROD assay) (Hepa1c1c7 cells incubated with 2 μM compound, compared to DMSO, 24-well and 6-well plate studies): significant difference
- formation of resorufin in live cells (MEROD assay) (Hepa1c1c7 cells incubated with 10 μM compound): no marked difference
